Our source for the Ki and IC50 values is patent US11220494B2, “Cyclin dependent kinase inhibitors” (Pfizer Inc., priority 2018, dated 2022).

In one test the target is CDK4/Cyclin D1 (Homo sapiens (Human), UniProt P11802). As to the kind of experiment: CDK4/Cyclin D1 mobility shift assay. The conditions noted are these: activated CDK4/Cyclin D1, 3.5 mM ATP, fit to Morrison equation; read-out: CDK4D1 Ki. The class given is biochemical. The protocol: Biological Assays and Data CDK4/Cyclin D1 Mobility Shift Assay
CDK4/Cyclin D1, sequence (P11802 whole entry): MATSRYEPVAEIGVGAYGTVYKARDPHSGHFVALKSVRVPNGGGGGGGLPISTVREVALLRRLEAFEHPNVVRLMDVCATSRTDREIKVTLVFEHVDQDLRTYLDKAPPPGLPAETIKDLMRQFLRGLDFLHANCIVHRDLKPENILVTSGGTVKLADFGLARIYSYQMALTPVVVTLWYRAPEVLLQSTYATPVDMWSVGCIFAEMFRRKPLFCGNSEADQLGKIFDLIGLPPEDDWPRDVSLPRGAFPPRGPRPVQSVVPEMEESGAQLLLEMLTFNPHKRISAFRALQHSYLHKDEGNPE
CDK4/Cyclin D1, sequence (P24385 whole entry partner): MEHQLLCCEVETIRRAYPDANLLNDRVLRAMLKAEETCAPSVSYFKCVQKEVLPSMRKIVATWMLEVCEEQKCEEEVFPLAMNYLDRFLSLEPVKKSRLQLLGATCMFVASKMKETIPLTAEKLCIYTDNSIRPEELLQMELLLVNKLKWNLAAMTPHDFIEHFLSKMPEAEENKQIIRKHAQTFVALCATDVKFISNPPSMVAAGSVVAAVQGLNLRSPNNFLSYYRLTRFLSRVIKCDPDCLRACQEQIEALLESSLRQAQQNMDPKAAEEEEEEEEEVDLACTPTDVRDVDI
The purpose CDK4/Cyclin D1 assay is to evaluate the inhibition (% inhibition, Kiapp and Ki values) in the presence of small molecule inhibitors by using a fluorescence based microfluidic mobility shift assay. […] The mobility shift assay electrophoretically separates the fluorescently labeled peptides (substrate and phosphorylated product) following the kinase reaction. Both substrate and product are measured and the ratio of these values is used to generate % Conversion of substrate to product by the LabChip EZ Reader.
The reaction was stopped after 195 minutes by the addition of 50 μL of 30 mM EDTA. Ki determinations were made from a plot of the fractional velocity as a function of inhibitor concentration fit to the Morrison equation with the enzyme concentration as a variable.
For CDK4 and CDK6 mobility shift assays, see also Morrison, J. F. (1969) Kinetics of the reversible inhibition of enzyme-catalysed reactions by tight-binding inhibitors, Biochimica et biophysica acta 185, 269-286; and Murphy, D. J. (2004) Determination of accurate KI values for tight-binding enzyme inhibitors: an in silico study of experimental error and assay design, Analytical biochemistry 327, 61-67.

For the next test, the target named is CDK6/Cyclin D3 (Homo sapiens (Human), UniProt Q00534). As to the kind of experiment: CDK6/Cyclin D3 mobility shift assay. It counts as biochemical. The conditions noted are these: activated CDK6/Cyclin D3, 3.5 mM ATP, fit to Morrison equation; read-out: CDK6_D3 Ki. The protocol:
CDK6/Cyclin D3 Mobility Shift Assay
The purpose of the CDK6/Cyclin D3 assay is to evaluate the inhibition (% inhibition, Kiapp and Ki values) in the presence of small molecule inhibitors by using a fluorescence based microfluidic mobility shift assay. […] The mobility shift assay electrophoretically separates the fluorescently labeled peptides (substrate and phosphorylated product) following the kinase reaction. Both substrate and product are measured and the ratio of these values is used to generate % conversion of substrate to product by the LabChip EZ Reader.
The reaction was stopped after 95 minutes by the addition of 50 μL of 30 mM EDTA. Ki determinations were made from a plot of the fractional velocity as a function of inhibitor concentration fit to the Morrison equation with the enzyme concentration as a variable.

Another test has as its target CDK4 (Homo sapiens (Human), UniProt P11802). As to the kind of experiment: Phospho-Serine 795 Rb ELISA assay in JEKO-1 cells. It counts as cell-based. The conditions noted are these: treated overnight, phospho-Ser795 Rb, read-out: CDK4 pRB S795 ELISA JEKO-1 cells IC50. The protocol: Phospho-Serine 795 Rb ELISA Assays
(§1) JEKO-1 or MV4-11 cells were seeded at 15,000 or 20,000 cells per well, respectively, in 100 μL growth media and allowed to incubate at 37° C. with 5% CO2 overnight. The following day, compounds were serially diluted from a 10 mM top dose for an 11-point 3-fold dilution curve in DMSO. Compounds were intermediately diluted 1:200 into growth media prior to diluting 1:5 on cells for final concentration 10 μM to 0.1 nM in 0.1% DMSO on cells. JEKO-1 and MV4-11 cells were treated were treated overnight, at 37° C. with 5% CO2. Cells were lysed in 100 μL/well CST lysis buffer on ice and transferred to pre-coated and blocked anti-phospho-Ser795 Rb ELISA plates for overnight incubation at 4° C. Plates were washed to remove residual, unbound cellular proteins and total Rb detection antibody added for 90 minutes at 37° C. Following wash to remove unbound total Rb antibody, the HRP tagged antibody was allowed to bind for 30 minutes at 37° C. Following wash to remove unbound HRP antibody, Glo Substrate Reagent was added and incubated protected from light for 5 to 10 minutes. Plates were read in luminescence mode and IC50 values calculated.
On the technique in general: In an ELISA, binding on a coated surface is turned into a signal by an enzyme label.

A further test concerns the target CDK6 (Homo sapiens (Human), UniProt Q00534). As to the kind of experiment: Phospho-Serine 795 Rb ELISA assay in MV4-11 cells. The conditions noted are these: treated overnight, phospho-Ser795 Rb, read-out: CDK6 pRB S795 ELISA MV4-11 cells IC50. It counts as cell-based. The protocol:
as §1

CDK4, sequence (P11802 2-303): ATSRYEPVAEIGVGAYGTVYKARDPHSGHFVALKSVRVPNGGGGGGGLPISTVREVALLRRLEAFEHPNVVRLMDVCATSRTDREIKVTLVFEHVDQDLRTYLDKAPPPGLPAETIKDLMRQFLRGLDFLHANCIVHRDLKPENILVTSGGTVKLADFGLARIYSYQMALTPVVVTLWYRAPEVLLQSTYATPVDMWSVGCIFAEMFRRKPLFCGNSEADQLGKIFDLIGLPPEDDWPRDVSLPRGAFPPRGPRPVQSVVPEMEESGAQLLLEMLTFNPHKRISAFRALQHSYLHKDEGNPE
CDK4, sequence (P24385 whole entry partner): as the sequence (P24385 whole entry partner) above
CDK6, sequence (Q00534 whole entry): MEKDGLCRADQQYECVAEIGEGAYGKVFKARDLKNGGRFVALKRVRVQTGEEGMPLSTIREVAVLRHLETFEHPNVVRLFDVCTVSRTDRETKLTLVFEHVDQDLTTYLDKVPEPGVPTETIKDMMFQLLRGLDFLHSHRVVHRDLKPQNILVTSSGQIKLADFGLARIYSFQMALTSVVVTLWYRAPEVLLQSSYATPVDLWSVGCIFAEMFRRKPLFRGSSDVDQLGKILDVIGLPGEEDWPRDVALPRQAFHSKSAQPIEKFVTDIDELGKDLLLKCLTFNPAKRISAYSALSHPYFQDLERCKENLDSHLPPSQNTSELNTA
CDK6, sequence (P30281 whole entry partner): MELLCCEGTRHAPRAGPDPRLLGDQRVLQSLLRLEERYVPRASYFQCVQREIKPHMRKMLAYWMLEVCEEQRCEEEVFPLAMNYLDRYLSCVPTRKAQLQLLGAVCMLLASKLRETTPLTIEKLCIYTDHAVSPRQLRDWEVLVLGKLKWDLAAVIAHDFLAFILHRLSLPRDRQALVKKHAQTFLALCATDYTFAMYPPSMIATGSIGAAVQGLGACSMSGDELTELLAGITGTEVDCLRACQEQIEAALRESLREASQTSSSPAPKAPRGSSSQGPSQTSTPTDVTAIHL
CDK6/Cyclin D3, sequence (Q00534 whole entry): as the sequence (Q00534 whole entry) above
CDK6/Cyclin D3, sequence (P30281 whole entry partner): as the sequence (P30281 whole entry partner) above

For `CC1(C)COCc2nc3c(F)cc(-c4nc(N[C@@H]5CCN(S(C)(=O)=O)C[C@H]5O)ncc4F)cc3n21` [Example A18], the Ki (as a rule, a measure of affinity in units of concentration, obtained from inhibition or displacement) at CDK4/Cyclin D1 turned out to be 0.2 nM; on CDK6/Cyclin D3 it was 2.3 nM. The figures for the IC50 on CDK4 and on CDK6 were 25 nM and 77.2 nM, respectively.

As to `CS(=O)(=O)N1CC[C@@H](Nc2ncc(Cl)c(-c3cc(F)c4ncn(C5CC5)c4c3)n2)[C@H](O)C1` [Example A15], the Ki on CDK4/Cyclin D1 is 0.3 nM; on CDK6/Cyclin D3, 2.4 nM.

In the case of `CC(C)n1cnc2c(Cl)cc(-c3nc(N[C@@H]4CCN(S(C)(=O)=O)C[C@H]4O)ncc3Cl)cc21` [Example A16], the inhibition constant Ki at CDK4/Cyclin D1 was found to be 0.2 nM; on CDK6/Cyclin D3 it was 2.7 nM. Moreover, the results for the IC50 on CDK4 and at CDK6 were 25.7 nM and 98.1 nM, respectively.

For `CC(C)n1c(C(C)(C)O)nc2c(F)cc(-c3nc(N[C@H]4CCOC[C@H]4O)ncc3Cl)cc21` [Example A35], the figures for the Ki on CDK4/Cyclin D1 and on CDK6/Cyclin D3 were 1.5 nM and 58.9 nM, respectively. The concentration for half-maximal inhibition (IC50) (commonly the concentration that inhibits the measured activity by half) came out at 124 nM on CDK4 and 967 nM on CDK6.

As to `CCC1COCc2nc3c(F)cc(-c4nc(N[C@@H]5CCN(S(C)(=O)=O)C[C@H]5O)ncc4F)cc3n21` (some centres unmarked) [Example A17], the inhibition constant (Ki) on CDK4/Cyclin D1 worked out at 0.1 nM; at CDK6/Cyclin D3, 0.4 nM. Also, the concentration for half-maximal inhibition (IC50) was found to be 9.9 nM on CDK4 and 13.4 nM at CDK6.

Take `CC(C)c1c2cc(-c3nc(N[C@@H]4CCN(S(C)(=O)=O)C[C@H]4O)ncc3Cl)cc(F)c2nn1C` [Example A25]: on CDK6/Cyclin D3, the Ki was 1.3 nM. Also, the IC50 stood at 13.3 nM at CDK4 and 30.6 nM on CDK6.

Turning to `CS(=O)(=O)N1CC[C@@H](Nc2ncc(Cl)c(-c3cc(F)c4ncn(C5CCOC5)c4c3)n2)[C@H](O)C1` (some centres unmarked) [Example A14], the results for the Ki at CDK4/Cyclin D1 and on CDK6/Cyclin D3 were 0.5 nM and 4.6 nM, respectively.
